From patent publication US20230303599A1, “PRODRUGS OF PHOSPHONAMIDE NUCLEOTIDE ANALOGUES AND THEIR PHARMACEUTICAL USE” (priority 2020, published 2023)
≈ marks a conversion by molar mass, not a printed value.

Legend:
[1] = Cytotoxicity assay in MT-4 cells; assay type: cell-based; conditions: human, uninfected MT-4 cells, average of at least two independent experiments, read-out: MT4 CC50
Procedure: Compounds were tested in a high-throughput 384-well assay format for their ability to inhibit the replication of HIV-1 (IIIB) in MT-4 cells. Compounds were serially diluted (1:3) in DMSO on 384-well polypropylene plates and further diluted 200-fold into complete RPMI media (10% FBS, 1% P/S) using the Biotek Micro Flow and Labcyte ECHO acoustic dispenser. Each plate contained up to 8 test compounds, with negative (no drug) and positive (5 μM AZT) controls. MT-4 cells were pre-treated with 10 μL of either RPMI (mock-infected) or a fresh 1:250 dilution of HIV-1 IIIB concentrated virus stock. Infected and uninfected MT-4 cells were further diluted in complete RPMI media and added to each plate using a Micro Flow dispenser. After 5 days incubation in a humidified and temperature-controlled incubator (37° C.), Cell Titer Glo (Promega) was added to the assay plates and chemiluminescence read using an Envision plate-reader. EC50 values were defined as the compound concentration that causes a 50% decrease in luminescence signal and were calculated using a sigmoidal dose-response model to generate curve fits and are shown in Table 1.
Example 105: Cytotoxicity Assay in MT-4 Cells
Assays were performed as described in Example 104 except uninfected MT-4 cells were added to each well containing test compound. In addition, 10 μM puromycin was added to the last column of each assay plate to assess a base level of cytotoxicity.

[2] = Kinetic solubility analysis; assay type: physicochemical; conditions: 1× PBS, 24.2 °C, aqueous buffer, kinetic from dmso stock; pH 7.4 PBS, 1% DMSO, 24-hour incubation at ambient temperature
Procedure: Example 108: Kinetic Solubility Analysis
Buffer Preparation: 0.1 N HCl: Hydrochloric acid, 0.1 N standardized solution (MP Biomedicals part number 199569). 1×PBS, pH 7.4: Phosphate Buffered Saline (PBS) solution 10× (Fisher Bioreagent part number BP399-500) 50 mL was added to approximately 450 mL HPLC grade H2O. The volume of the solution was then adjusted to 500 mL for a total dilution factor of 1:10 and a final PBS concentration of 1×.
The final DMSO concentration was 1.0% (v/v) and maximum theoretical compound concentration is 100 μM (for compound stock concentration of 10 mM). The filter plate was sealed. Following 24-hour incubation at ambient temperature (24.2-27.5° C.), the samples were vacuum filtered and the filtrates were collected in a 96 well polypropylene plate for analysis. The collection plate was sealed for analysis. Filtrates were injected into the Antek 8060 chemiluminescent nitrogen detector for quantification. The results are reported in μM.
The filtrates were quantified with respect to this calibration curve. Each calculated solubility value was corrected for background nitrogen present in the DMSO and in the medium used to prepare the sample. All reported values for compounds containing adjacent nitrogen atoms in a ring structure were increased by approximately 25%.

solubility kinetic at 24 h [2] [µg/mL] | SMILES | CC50 at 5 days [1] [µM]
92 (≈ 125 µM) | CCCCCCOC(=O)C(C)(C)NP(=O)(CO[C@H](C)Cn1cnc2c(NC(=O)[C@H]3CCC(=O)O3)ncnc21)NC(C)(C)C(=O)OCCCCCC [Example 96, Dihexyl 2,2′-((((((R)-1-(6-((R)-5-oxotetrahydrofuran-2-carboxamido)-9H-purin-9-yl)propan-2-yl)oxy)methyl)phosphoryl)bis(azanediyl))bis(2-methylpropanoate)] | 11
23 (≈ 26.1 µM) | CCCCCCOC(=O)C(C)(C)NP(=O)(CO[C@H](C)Cn1cnc2c(NC(=O)OC(C)(C)CC(=O)OCc3oc(=O)oc3C)ncnc21)NC(C)(C)C(=O)OCCCCCC [Example 101, Dihexyl 2,2′-(((((1-(6-((((2-methyl-4-((5-methyl-2-oxo-1,3-dioxol-4-yl)methoxy)-4-oxobutan-2-yl)oxy)carbonyl)amino)-9H-purin-9-yl)propan-2-yl)oxy)methyl)phosphoryl)bis(azanediyl))(R)-bis(2-methylpropanoate)] | 7.68
7 (≈ 7.94 µM) | CCCCCCOC(=O)C(C)(C)NP(=O)(CO[C@H](C)Cn1cnc2c(NC(=O)OCC(C)(C)C(=O)OCc3oc(=O)oc3C)ncnc21)NC(C)(C)C(=O)OCCCCCC [Example 98, Dihexyl 2,2′-(((((1-(6-(((2,2-dimethyl-3-((5-methyl-2-oxo-1,3-dioxol-4-yl)methoxy)-3-oxopropoxy)carbonyl)amino)-9H-purin-9-yl)propan-2-yl)oxy)methyl)phosphoryl)bis(azanediyl))(R)-bis(2-methylpropanoate)] | 24.5
< 1 | CCCCCCOC(=O)C(NP(=O)(CO[C@H](C)Cn1cnc2c(N)ncnc21)NC(C(=O)OCCCCCC)(C1CC1)C1CC1)(C1CC1)C1CC1 [Example 64, Dihexyl 2,2′-(((((1-(6-amino-9H-purin-9-yl)propan-2-yl)oxy)methyl)phosphoryl)bis(azanediyl))(R)-bis(2,2-dicyclopropylacetate)] | 7.34
2 (≈ 2.49 µM) | C[C@H](Cn1cnc2c(N)ncnc21)OCP(=O)(N[C@@](C)(Cc1ccccc1)C(=O)OCC1CCCCC1)N[C@@](C)(Cc1ccccc1)C(=O)OCC1CCCCC1 [Example 15, Bis(cyclohexylmethyl) 2,2′-((((((R)-1-(6-amino-9H-purin-9-yl)propan-2-yl)oxy)methyl)phosphoryl)bis(azanediyl))(2S,2'S)-bis(2-methyl-3-phenylpropanoate)] | 4.36
18 (≈ 27.7 µM) | CCCCCCOC(=O)C1(NP(=O)(CO[C@H](C)Cn2cnc3c(N)ncnc32)NC2(C(=O)OCCCCCC)CCC2)CCC1 [Example 19, Dihexyl 1,1′-(((((1-(6-amino-9H-purin-9-yl)propan-2-yl)oxy)methyl)phosphoryl)bis(azanediyl))(R)-bis(cyclobutane-1-carboxylate)] | 17.3
25 (≈ 29.3 µM) | CCCCCCOC(=O)C(C)(C)NP(=O)(CO[C@H](C)Cn1cnc2c(NC(=O)CCCC(=O)OCc3oc(=O)oc3C)ncnc21)NC(C)(C)C(=O)OCCCCCC [Example 99, (5-Methyl-2-oxo-1,3-dioxol-4-yl)methyl 5-[[9-[(2R)-2-[bis[(2-hexoxy-1,1-dimethyl-2-oxo-ethyl)amino]phosphorylmethoxy]propyl]purin-6-yl]amino]-5-oxo-pentanoate] | 17.2
 | C[C@H](Cn1cnc2c(N)ncnc21)OCP(=O)(NC(C)(C)C(=O)OC1CCC2(CCC2)CC1)NC(C)(C)C(=O)OC1CCC2(CCC2)CC1 (stereo partly drawn) [Example 63, Di(spiro[3.5]nonan-7-yl) 2,2′-(((((1-(6-amino-9H-purin-9-yl)propan-2-yl)oxy)methyl)phosphoryl)bis(azanediyl))(R)-bis(2-methylpropanoate)] | 2.22
60 (≈ 71.4 µM) | CCCCCCOC(=O)C(C)(C)NP(=O)(CO[C@H](C)Cn1cnc2c(NC(=O)OCC(=O)OCc3oc(=O)oc3C)ncnc21)NC(C)(C)C(=O)OCCCCCC [Example 95, Dihexyl 2,2′-(((((1-(6-(((2-((5-methyl-2-oxo-1,3-dioxol-4-yl)methoxy)-2-oxoethoxy)carbonyl)amino)-9H-purin-9-yl)propan-2-yl)oxy)methyl)phosphoryl)bis(azanediyl))(R)-bis(2-methylpropanoate)] | 14.8
1 (≈ 1.29 µM) | C[C@H](Cn1cnc2c(N)ncnc21)OCP(=O)(NC(C)(C)C(=O)O[C@H]1CC[C@H](c2ccccc2)CC1)NC(C)(C)C(=O)O[C@H]1CC[C@H](c2ccccc2)CC1 [Example 93, Bis(trans-4-phenylcyclohexyl) 2,2′-((((((R)-1-(6-amino-9H-purin-9-yl)propan-2-yl)oxy)methyl)phosphoryl)bis(azanediyl))bis(2-methylpropanoate)] | 5.47
54 (≈ 94.8 µM) | CC(C)COC(=O)C(C)(C)NP(=O)(CO[C@H](C)Cn1cnc2c(N)ncnc21)NC(C)(C)C(=O)OCC(C)C [Example 35, Diisobutyl 2,2′-(((((1-(6-amino-9H-purin-9-yl)propan-2-yl)oxy)methyl)phosphoryl)bis(azanediyl))(R)-bis(2-methylpropanoate)] | 4.35
12 (≈ 18.4 µM) | CCCCCCOC(=O)C(C)(C)NP(=O)(CO[C@H](C)Cn1cnc2c(N)ncnc21)N[C@]1(C(=O)OCCCCCC)C[C@H]1CC (stereo partly drawn) [Example 16, Hexyl (1R,2R)-1-((((((R)-1-(6-amino-9H-purin-9-yl)propan-2-yl)oxy)methyl)((1-(hexyloxy)-2-methyl-1-oxopropan-2-yl)amino)phosphoryl)amino)-2-ethylcyclopropane-1-carboxylate] | 6.41
54 (≈ 86.9 µM) | C[C@H](Cn1cnc2c(N)ncnc21)OCP(=O)(NC(C)(C)C(=O)OC1CC(C)(C)C1)NC(C)(C)C(=O)OC1CC(C)(C)C1 [Example 42, Bis(3,3-dimethylcyclobutyl) 2,2′-(((((1-(6-amino-9H-purin-9-yl)propan-2-yl)oxy)methyl)phosphoryl)bis(azanediyl))(R)-bis(2-methylpropanoate)] | 
45 (≈ 79 µM) | CCCCOC(=O)C(C)(C)NP(=O)(CO[C@H](C)Cn1cnc2c(N)ncnc21)NC(C)(C)C(=O)OCCCC [Example 38, Dibutyl 2,2′-(((((1-(6-amino-9H-purin-9-yl)propan-2-yl)oxy)methyl)phosphoryl)bis(azanediyl))(R)-bis(2-methylpropanoate)] | 
7 (≈ 10.7 µM) | CCCCCCOC(=O)[C@](C)(CC)NP(=O)(CO[C@H](C)Cn1cnc2c(N)ncnc21)N[C@@](C)(CC)C(=O)OCCCCCC [Example 10, Dihexyl 2,2′-((((((R)-1-(6-amino-9H-purin-9-yl)propan-2-yl)oxy)methyl)phosphoryl)bis(azanediyl))(2S,2′S)-bis(2-methylbutanoate)] | 
 | CCCCCCOC(=O)[C@@]1(NP(=O)(CO[C@H](C)Cn2cnc3c(N)ncnc32)N[C@]2(C(=O)OCCCCCC)C[C@H]2CC)C[C@H]1CC [Example 17, Dihexyl 1,1′-((((((R)-1-(6-amino-9H-purin-9-yl)propan-2-yl)oxy)methyl)phosphoryl)bis(azanediyl))(1R,1′R,2R,2′R)-bis(2-ethylcyclopropane-1-carboxylate)] | 8.85
10 (≈ 14.8 µM) | C[C@H](Cn1cnc2c(N)ncnc21)OCP(=O)(NC(C)(C)C(=O)OC1CCC(C)(C)CC1)NC(C)(C)C(=O)OC1CCC(C)(C)CC1 [Example 44, Bis(4,4-dimethylcyclohexyl) 2,2′-(((((1-(6-amino-9H-purin-9-yl)propan-2-yl)oxy)methyl)phosphoryl)bis(azanediyl))(R)-bis(2-methylpropanoate)] | 
56 (≈ 86.2 µM) | CCCCCCOC(=O)C(C)(C)NP(=O)(CO[C@H](C)Cn1cnc2c(N)ncnc21)NC(C)(C)C(=O)OCC12CCC(CC1)C2 (stereo partly drawn) [Example 80, Bicyclo[2.2.1]heptan-1-ylmethyl 2-((((((R)-1-(6-amino-9H-purin-9-yl)propan-2-yl)oxy)methyl)((1-(hexyloxy)-2-methyl-1-oxopropan-2-yl)amino)phosphoryl)amino)-2-methylpropanoate] | 
84 (≈ 119 µM) | C[C@H](Cn1cnc2c(N)ncnc21)OCP(=O)(NC(C)(C)C(=O)OCCCCC(F)(F)F)NC(C)(C)C(=O)OCCCCC(F)(F)F [Example 25, Bis(5,5,5-trifluoropentyl) 2,2′-(((((1-(6-amino-9H-purin-9-yl)propan-2-yl)oxy)methyl)phosphoryl)bis(azanediyl))(R)-bis(2-methylpropanoate)] | 
